Biological target: T1, human TLR8 (Homo sapiens, UniProt Q9NR97)
T1 sequence (Q9NR97 27-1041): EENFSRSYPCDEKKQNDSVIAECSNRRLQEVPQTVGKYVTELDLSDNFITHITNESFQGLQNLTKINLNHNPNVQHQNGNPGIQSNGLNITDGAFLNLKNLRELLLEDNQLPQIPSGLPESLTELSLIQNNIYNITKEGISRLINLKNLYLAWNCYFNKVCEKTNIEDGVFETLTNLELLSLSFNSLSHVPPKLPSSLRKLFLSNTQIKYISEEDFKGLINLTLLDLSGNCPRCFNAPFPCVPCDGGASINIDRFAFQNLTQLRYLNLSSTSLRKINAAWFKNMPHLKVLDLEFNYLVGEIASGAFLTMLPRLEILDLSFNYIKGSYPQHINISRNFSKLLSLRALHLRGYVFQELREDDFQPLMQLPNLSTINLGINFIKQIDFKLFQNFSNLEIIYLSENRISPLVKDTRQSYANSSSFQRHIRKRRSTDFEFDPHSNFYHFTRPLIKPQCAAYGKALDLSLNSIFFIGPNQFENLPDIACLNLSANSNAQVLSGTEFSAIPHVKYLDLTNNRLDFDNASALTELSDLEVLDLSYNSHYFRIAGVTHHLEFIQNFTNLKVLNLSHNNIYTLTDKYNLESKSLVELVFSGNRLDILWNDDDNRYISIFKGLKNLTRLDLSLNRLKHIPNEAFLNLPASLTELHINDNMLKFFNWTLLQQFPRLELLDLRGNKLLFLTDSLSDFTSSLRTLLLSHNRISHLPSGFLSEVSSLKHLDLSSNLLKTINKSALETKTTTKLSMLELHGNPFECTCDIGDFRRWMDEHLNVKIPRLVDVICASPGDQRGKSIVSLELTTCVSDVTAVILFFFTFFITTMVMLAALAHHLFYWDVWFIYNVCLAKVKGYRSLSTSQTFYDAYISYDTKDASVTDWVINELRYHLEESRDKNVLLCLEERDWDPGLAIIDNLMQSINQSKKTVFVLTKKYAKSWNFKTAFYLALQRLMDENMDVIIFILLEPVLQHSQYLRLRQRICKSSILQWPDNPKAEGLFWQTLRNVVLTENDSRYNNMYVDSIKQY
Experiment: HEK293-Blue-hTLR-8 cells assay (SEAP reporter, R848 stimulation)
Assay type: cell-based
Settings: HEK293-Blue-hTLR8 cells, R848, 20 hrs; 0.003 is the lowest tested concentration; read-out: HEK/hTLR8 IC50
Protocol: The following tests were carried out in order to determine the activity of the compounds of formula (I) or (Ia) in HEK293-Blue-hTLR-7/8/9 cells assay.
HEK293-Blue-hTLR-8 cells assay:
A stable HEK293-Blue-hTLR-8 cell line was purchased from InvivoGen (Cat.#: hkb-htlr8, San Diego, California, USA). These cells were originally designed for studying the stimulation of human TLR8 by monitoring the activation of NF-κB. A SEAP (secreted embryonic alkaline phosphatase) reporter gene was placed under the control of the IFN-β minimal promoter fused to five NF-κB and AP-1-binding sites. The SEAP was induced by activating NF-κB and AP-1 via stimulating HEK-Blue hTLR8 cells with TLR8 ligands. Therefore the reporter expression was declined by TLR8 antagonist under the stimulation of a ligand, such as R848, for incubation of 20 hrs. The cell culture supernatant SEAP reporter activity was determined using QUANTI-Blue™ kit (Cat.#: rep-qb1, Invivogen, San Diego, Ca, USA) at a wavelength of 640 nm, a detection medium that turns purple or blue in the presence of alkaline phosphatase.
HEK293-Blue-hTLR8 cells were incubated at a density of 250,000∼450,000 cells/mL in a volume of 170 µL in a 96-well plate in Dulbecco's Modified Eagle's medium (DMEM) containing 4.5 g/L glucose, 50 U/mL penicillin, […], […], 2 mM L-glutamine, 10% (v/v) heat-inactivated fetal bovine serum with addition of 20 µL test compound in a serial dilution in the presence of final DMSO at 1% and 10 µL of 60uM R848 in above DMEM, perform incubation under 37 °C in a CO2 incubator for 20 hrs. Then 20 µL of the supernatant from each well was incubated with 180 µL Quanti-blue substrate solution at 37°C for 2 hrs and the absorbance was read at 620∼655 nm using a spectrophotometer. The signalling pathway that TLR8 activation leads to downstream NF-κB activation has been widely accepted, and therefore similar reporter assay was modified for evaluating TLR8 antagonist.

Question: With “3-fluoro-4-[(2R,6S)-2-methyl-6-[(5-piperazin-1-ylisoindolin-2-yl)methyl]morpholin-4-yl]pyrazolo[1,5-a]pyridine-7-carbonitrile [Example 7]” as the compound, how does the IC50 read?
Answer: Its IC50 is 13 nM.

Question: With “5-[(2S,6R)-2-[[5-[3-(hydroxymethyl)piperazin-1-yl]isoindolin-2-yl]methyl]-6-methyl-morpholin-4-yl]quinoline-8-carbonitrile [Example 85]” as the compound, how does the IC50 read?
Answer: Its IC50 is 17 nM.

Question: Which IC50 does the source give for `C[C@@H]1CN(c2ccc3c(c2)CN(C[C@H]2CN(c4ccc(C#N)c5ncccc45)C[C@@H](C)O2)C3)C[C@@H](C)N1` (mixture of isomers) [Example 57, Trans-5-[(2R,6S)-2-methyl-6-[[5-[3,5-dimethylpiperazin-1-yl]isoindolin-2-yl]methyl]morpholin-4-yl]quinoline-8-carbonitrile] here?
Answer: The IC50 was 12 nM.

Question: Which IC50 does the source give for `C[C@@H]1CN(c2ccc(C#N)n3nccc23)C[C@H](CN2Cc3ccc(N4CCNCC4)cc3C2)O1` [Example 4, 4-[(2R,6S)-2-methyl-6-[(5-piperazin-1-ylisoindolin-2-yl)methyl]morpholin-4-yl]pyrazolo[1,5-a]pyridine-7-carbonitrile] here?
Answer: The IC50 was 57 nM.

Question: For `C[C@@H]1CN(c2ccc(C#N)n3nccc23)C[C@H](CN2Cc3ccc(C4CCNCC4)cc3C2)O1` [Example 8, 4-[(2R,6S)-2-methyl-6-[[5-(4-piperidyl)isoindolin-2-yl]methyl]morpholin-4-yl]pyrazolo[1,5-a]pyridine-7-carbonitrile], which IC50 is on record?
Answer: The IC50 was 79 nM.

Question: Which IC50 does the source give for `C[C@@H]1CN(c2ccc(C#N)n3nccc23)C[C@H](CN2Cc3ccc(C4CCNC4)cc3C2)O1` (stereo partly drawn) [Example 9, 4-[(2R,6S)-2-methyl-6-[(5-pyrrolidin-3-ylisoindolin-2-yl)methyl]morpholin-4-yl]pyrazolo[1,5-a]pyridine-7-carbonitrile] here?
Answer: Its IC50 is 90 nM.

Question: For `C[C@@H]1CN(c2ccc(C#N)n3nccc23)C[C@H](CN2CCc3cc(N4CCNCC4)ccc3C2)O1` [Example 10, 4-[(2R,6S)-2-methyl-6-[(6-piperazin-1-yl-3,4-dihydro-1H-isoquinolin-2-yl)methyl]morpholin-4-yl]pyrazolo[1,5-a]pyridine-7-carbonitrile], which IC50 is on record?
Answer: Its IC50 is 52 nM.

Question: How did the IC50 turn out when `C[C@@H]1CN(c2ccc(C#N)n3nccc23)C[C@H](CN2CCc3ccc(N4CCNCC4)cc3C2)O1` [Example 11, 4-[(2R,6S)-2-methyl-6-[(7-piperazin-1-yl-3,4-dihydro-1H-isoquinolin-2-yl)methyl]morpholin-4-yl]pyrazolo[1,5-a]pyridine-7-carbonitrile] was run?
Answer: The IC50 was 229 nM.

Question: With `C[C@@H]1CN(c2ccc(C#N)c3nccnc23)C[C@H](CN2Cc3ccc(N4CCNCC4)cc3C2)O1` [Example 12, 8-[(2R,6S)-2-methyl-6-[(5-piperazin-1-ylisoindolin-2-yl)methyl]morpholin-4-yl]quinoxaline-5-carbonitrile] as the compound, how does the IC50 read?
Answer: Its IC50 is less than 3 nM.

Question: With `C[C@@H]1CN(c2ccc(C#N)c3nccnc23)C[C@H](CN2CCc3cc(N4CCNCC4)ccc3C2)O1` [Example 13, 8-[(2R,6S)-2-methyl-6-[(6-piperazin-1-yl-3,4-dihydro-1H-isoquinolin-2-yl)methyl]morpholin-4-yl]quinoxaline-5-carbonitrile] as the compound, how does the IC50 read?
Answer: The IC50 was less than 3 nM.

Question: Which IC50 does the source give for `C[C@@H]1CN(c2ccc(C#N)n3ncc(F)c23)C[C@H](CN2CCc3cc(N4CCNCC4)ccc3C2)O1` [Example 14, 3-fluoro-4-[(2R,6S)-2-methyl-6-[(6-piperazin-1-yl-3,4-dihydro-1H-isoquinolin-2-yl)methyl]morpholin-4-yl]pyrazolo[1,5-a]pyridine-7-carbonitrile] here?
Answer: Its IC50 is 29 nM.

Question: Which IC50 does the source give for `C[C@@H]1CN(c2ccc(C#N)n3nccc23)C[C@H](CN2CCc3cc(N4CCN(C)CC4)ccc3C2)O1` [Example 15, 4-[(2R,6S)-2-methyl-6-[[6-(4-methylpiperazin-1-yl)-3,4-dihydro-1H-isoquinolin-2-yl]methyl]morpholin-4-yl]pyrazolo[1,5-a]pyridine-7-carbonitrile] here?
Answer: Its IC50 is 21 nM.

Question: For `C[C@@H]1CN(c2ccc(C#N)n3nccc23)C[C@H](CN2Cc3ccc(N4CCN(C)CC4)cc3C2)O1` [Example 17, 4-[(2R,6S)-2-methyl-6-[[5-(4-methylpiperazin-1-yl)isoindolin-2-yl]methyl]morpholin-4-yl]pyrazolo[1,5-a]pyridine-7-carbonitrile], which IC50 is on record?
Answer: Its IC50 is 52 nM.

Question: `C[C@@H]1CN(c2ccc(C#N)n3nccc23)C[C@H](CN2Cc3cc(N4CCNCC4)cnc3C2)O1` [Example 18, 4-[(2R,6S)-2-methyl-6-[(3-piperazin-1-yl-5,7-dihydropyrrolo[3,4-b]pyridin-6-yl)methyl]morpholin-4-yl]pyrazolo[1,5-a]pyridine-7-carbonitrile] was tested. Which IC50 did it give?
Answer: The IC50 was 31 nM.

Question: How did the IC50 turn out when `C[C@@H]1CN(c2ccc(C#N)c3ncccc23)C[C@H](CN2Cc3cc(N4CCNCC4)cnc3C2)O1` [Example 20, 5-[(2R,6S)-2-methyl-6-[(3-piperazin-1-yl-5,7-dihydropyrrolo[3,4-b]pyridin-6-yl)methyl]morpholin-4-yl]quinoline-8-carbonitrile] was run?
Answer: Its IC50 is 4 nM.

Question: How did the IC50 turn out when `C[C@@H]1CN(c2ccc(C#N)c3ncsc23)C[C@H](CN2Cc3ccc(N4CCNCC4)cc3C2)O1` [Example 23, 7-[(2R,6S)-2-methyl-6-[(5-piperazin-1-ylisoindolin-2-yl)methyl]morpholin-4-yl]-1,3-benzothiazole-4-carbonitrile] was run?
Answer: The IC50 was less than 3 nM.

Question: With `C[C@@H]1CN(c2ccc(C#N)c3ncsc23)C[C@H](CN2CCc3cc(N4CCNCC4)ccc3C2)O1` [Example 24, 7-[(2R,6S)-2-methyl-6-[(6-piperazin-1-yl-3,4-dihydro-1H-isoquinolin-2-yl)methyl]morpholin-4-yl]-1,3-benzothiazole-4-carbonitrile] as the compound, how does the IC50 read?
Answer: Its IC50 is 4 nM.

Question: For `C[C@@H]1CN(c2ccc(C#N)c3ncsc23)C[C@H](CN2Cc3cc(N4CCNCC4)cnc3C2)O1` [Example 25, 7-[(2R,6S)-2-methyl-6-[(3-piperazin-1-yl-5,7-dihydropyrrolo[3,4-b]pyridin-6-yl)methyl]morpholin-4-yl]-1,3-benzothiazole-4-carbonitrile], which IC50 is on record?
Answer: Its IC50 is less than 3 nM.

Question: How did the IC50 turn out when `C[C@@H]1CN(c2ccc(C#N)n3nccc23)C[C@H](CN2Cc3ccc(OCCN(C)C)cc3C2)O1` [Example 28, 4-[(2S,6R)-2-[[5-[2-(dimethylamino)ethoxy]isoindolin-2-yl]methyl]-6-methyl-morpholin-4-yl]pyrazolo[1,5-a]pyridine-7-carbonitrile] was run?
Answer: Its IC50 is 58 nM.

Question: Which IC50 does the source give for `C[C@@H]1CN(c2ccc(C#N)n3ncc(F)c23)C[C@H](CN2Cc3cc(N4CCNCC4)cnc3C2)O1` [Example 29, 3-fluoro-4-[(2R,6S)-2-methyl-6-[(3-piperazin-1-yl-5,7-dihydropyrrolo[3,4-b]pyridin-6-yl)methyl]morpholin-4-yl]pyrazolo[1,5-a]pyridine-7-carbonitrile] here?
Answer: The IC50 was 14 nM.

Question: How did the IC50 turn out when `C[C@@H]1CN(c2ccc(C#N)c3nccnc23)C[C@H](CN2Cc3cc(N4CCNCC4)cnc3C2)O1` [Example 30, 8-[(2R,6S)-2-methyl-6-[(3-piperazin-1-yl-5,7-dihydropyrrolo[3,4-b]pyridin-6-yl)methyl]morpholin-4-yl]quinoxaline-5-carbonitrile] was run?
Answer: Its IC50 is 3 nM.

Question: `C[C@@H]1CN(c2ccc(Cl)c3ncccc23)C[C@H](CN2Cc3ccc(N4CCNCC4)cc3C2)O1` [Example 31, (2R,6S)-4-(8-chloro-5-quinolyl)-2-methyl-6-[(5-piperazin-1-ylisoindolin-2-yl)methyl]morpholine] was tested. Which IC50 did it give?
Answer: Its IC50 is 13 nM.

Reference: patent EP3623369A1, “NOVEL MORPHOLINYL AMINE COMPOUNDS FOR THE TREATMENT OF AUTOIMMUNE DISEASE” (F. Hoffmann-La Roche AG, priority 2018, dated 2020)
